Experimental findings from patent publication US11179430B2, “Extracts from mother-of-thyme and the use i'hereof” (Finzelberg GmbH & Co. KG, priority 2012, dated 2021) are described below.

In the experiment the test system is TNBS-induced colitis in Wistar rats. As to the kind of experiment: In vivo TNBS test model (colitis in rats). Here is the method:
Female Wistar rats (200-210 g) were kept in Makrolon cages in air-conditioned animal quarters with 12 hours light-dark cycle, fed standard rodent food and water ad libitum throughout the experiment. The rats are randomly assigned to six groups (n=10). Two groups (healthy and sick controls) obtain 1 ml of the administration medium orally, and the test groups obtain either 100 mg/kg BW of a wild thyme extract formulation according to Example 4, or 70 mg/kg BW of a wild thyme extract formulation according to Example 3, or 30 mg/kg BW of the prebiotic Nutriose, or 100 mg/kg BW sulfasalazine (SAZ) in the reference group. All test substances are administered once a day as a solution or suspension through a gastric tube for a period of 7 days. The administration of the test substances starts at the same day as the colitis induction. For this purpose, the rats are fasted over night, and then a colitis is induced in both the sick control group and the treatment groups with TNBS as follows: During a halothane anesthesia, a solution (10 mg of TNBS dissolved in 0.25 ml of ethanol 50% v/v) is injected from a Teflon cannula through the anus 8 cm deep into the intestine. The rats of the healthy control group are administered 0.25 ml of a PBS solution instead of the TNBS solution. The body weight, the water and food intake and the stool consistency are recorded daily during the testing period. One week after the start of the colitis induction, all the rats are sacrificed by an overdose of halothane, and the intestine is removed for evaluating the intestinal damage. The intestinal segment is cleaned from fat and mesenterium, and transferred to a filter paper. Each specimen is weighed, and its length is measured under a constant load (2 g), and the weight-to-length ratio is determined therefrom. Independently of the treatment employed, the intestine is evaluated macroscopically for visible damage on a scale of from 0 to 10 by two observers by means of previously defined criteria, which take the extension and severity of the damage into account. […]

Where the note is “100 mg/kg oral once a day, 7 days, colitic control 281.8 ± 26.8”, `O=C(O)c1cc(/N=N/c2ccc(S(=O)(=O)Nc3ccccn3)cc2)ccc1O` [Sulfasalazine, sulfasalazine] registered an IL-6 of 222.0 ± 16.1 ng/g. Besides, the MPO (100 mg/kg oral once a day, 7 days, colitic control 8969.6 ± 1402.0) stood at 5591.5 ± 537.0 mU/g. The “significant influence on the parameters of Table 3, in words” value (doses as in Table 3, vs. colitic control) is listed as “could not show significant improvements in all parameters”.
